According to BindingDB's records for patent US12435089 (Tyk Medicines, 2025):

Key:
Test in all cases: Inhibitory Activity of the Compounds of the Invention Against ROS1, NTRK and ALK and their Drug-Resistant Kinases
[1] = molecular target: Proto-oncogene tyrosine-protein kinase ROS (Homo sapiens, UniProt P08922)
Procedure: (§1) Inhibition of protein kinase activity by compounds was carried out on the Radio-tagged HotSpot kinase experimental platform of Reaction Biology Corporation. Fresh reaction solution (20 mM HEPESpH 7.5, 10 mM MgCl2, 1 mM EGTA, 0.02% Brij35, 0.02 mg/ml BSA, 0.1 mM Na3VO4, 2 mM DTT, 1% DMSO) containing corresponding substrates was prepared, cofactor and kinase to be tested were added into the above solution and mixed gently. Echo550 pipetting system was used to add the test compound DMSO solution to each well (the blank control group was added with the corresponding volume of DMSO), then 33P-ATP (with a final specific activity of 0.01 μCi/μL) was added to start the reaction. The reaction solution was incubated at room temperature for 120 minutes.

[2] = molecular target: High affinity nerve growth factor receptor (Homo sapiens, UniProt P04629)
Procedure: as §1

[3] = molecular target: NT-3 growth factor receptor (Homo sapiens, UniProt Q16288)
Procedure: as §1

Measured: IC50

Chain of Proto-oncogene tyrosine-protein kinase ROS (P08922 whole entry): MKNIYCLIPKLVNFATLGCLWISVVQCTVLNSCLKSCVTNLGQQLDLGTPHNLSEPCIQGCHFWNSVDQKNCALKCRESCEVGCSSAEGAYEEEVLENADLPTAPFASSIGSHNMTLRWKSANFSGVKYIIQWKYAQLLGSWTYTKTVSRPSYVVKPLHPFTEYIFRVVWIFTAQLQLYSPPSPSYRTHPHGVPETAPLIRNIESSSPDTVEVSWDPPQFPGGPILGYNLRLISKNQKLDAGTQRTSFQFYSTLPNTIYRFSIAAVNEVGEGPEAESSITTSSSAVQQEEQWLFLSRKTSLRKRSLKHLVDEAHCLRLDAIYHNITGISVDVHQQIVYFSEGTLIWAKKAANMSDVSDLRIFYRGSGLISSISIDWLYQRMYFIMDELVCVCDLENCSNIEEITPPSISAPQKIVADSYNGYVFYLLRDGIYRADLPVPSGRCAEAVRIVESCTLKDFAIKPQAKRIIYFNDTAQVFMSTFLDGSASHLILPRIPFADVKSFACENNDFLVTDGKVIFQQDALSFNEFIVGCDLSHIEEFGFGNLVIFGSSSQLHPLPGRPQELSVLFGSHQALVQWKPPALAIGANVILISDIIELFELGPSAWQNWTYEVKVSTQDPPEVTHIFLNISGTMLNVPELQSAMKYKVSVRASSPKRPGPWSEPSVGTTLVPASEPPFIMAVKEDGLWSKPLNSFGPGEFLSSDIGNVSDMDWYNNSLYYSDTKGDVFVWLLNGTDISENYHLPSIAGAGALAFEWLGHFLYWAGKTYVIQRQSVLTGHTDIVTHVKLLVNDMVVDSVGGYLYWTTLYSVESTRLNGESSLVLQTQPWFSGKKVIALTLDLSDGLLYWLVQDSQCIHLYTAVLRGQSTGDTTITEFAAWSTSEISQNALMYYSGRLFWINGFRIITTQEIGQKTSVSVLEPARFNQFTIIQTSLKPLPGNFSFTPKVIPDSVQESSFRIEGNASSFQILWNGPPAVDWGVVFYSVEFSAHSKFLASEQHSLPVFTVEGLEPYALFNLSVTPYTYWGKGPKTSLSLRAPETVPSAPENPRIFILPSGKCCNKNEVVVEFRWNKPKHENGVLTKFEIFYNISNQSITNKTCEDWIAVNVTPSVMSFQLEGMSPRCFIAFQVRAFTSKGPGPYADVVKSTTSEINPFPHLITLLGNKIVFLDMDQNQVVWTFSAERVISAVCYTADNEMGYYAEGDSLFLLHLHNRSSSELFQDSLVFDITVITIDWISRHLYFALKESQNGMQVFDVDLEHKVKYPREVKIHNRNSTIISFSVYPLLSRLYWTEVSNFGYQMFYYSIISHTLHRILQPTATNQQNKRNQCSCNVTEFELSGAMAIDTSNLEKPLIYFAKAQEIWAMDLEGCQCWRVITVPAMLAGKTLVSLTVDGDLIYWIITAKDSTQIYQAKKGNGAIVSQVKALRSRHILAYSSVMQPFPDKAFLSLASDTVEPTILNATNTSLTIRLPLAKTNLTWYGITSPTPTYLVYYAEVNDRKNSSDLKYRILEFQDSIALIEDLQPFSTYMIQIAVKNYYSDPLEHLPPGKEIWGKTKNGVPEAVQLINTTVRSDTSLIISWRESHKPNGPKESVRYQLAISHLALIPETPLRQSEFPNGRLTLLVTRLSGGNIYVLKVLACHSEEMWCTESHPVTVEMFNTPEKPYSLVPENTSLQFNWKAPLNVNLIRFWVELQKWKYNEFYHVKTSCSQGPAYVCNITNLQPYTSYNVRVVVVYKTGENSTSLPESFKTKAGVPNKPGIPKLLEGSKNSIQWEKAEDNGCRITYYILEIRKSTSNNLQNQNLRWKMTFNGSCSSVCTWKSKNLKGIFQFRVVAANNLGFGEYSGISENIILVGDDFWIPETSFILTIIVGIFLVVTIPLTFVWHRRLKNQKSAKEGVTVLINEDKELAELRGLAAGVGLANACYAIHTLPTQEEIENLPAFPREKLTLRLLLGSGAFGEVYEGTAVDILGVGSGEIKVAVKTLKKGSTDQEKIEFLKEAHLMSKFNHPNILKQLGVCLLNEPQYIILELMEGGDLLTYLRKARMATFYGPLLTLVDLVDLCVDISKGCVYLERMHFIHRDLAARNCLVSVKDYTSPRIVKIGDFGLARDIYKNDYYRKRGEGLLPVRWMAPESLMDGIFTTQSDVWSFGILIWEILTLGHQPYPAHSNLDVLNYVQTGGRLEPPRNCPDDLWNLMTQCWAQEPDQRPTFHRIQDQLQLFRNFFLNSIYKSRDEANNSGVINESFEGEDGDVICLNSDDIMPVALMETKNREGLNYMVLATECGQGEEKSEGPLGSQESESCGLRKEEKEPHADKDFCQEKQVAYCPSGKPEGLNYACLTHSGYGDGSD
Chain of High affinity nerve growth factor receptor (P04629 whole entry): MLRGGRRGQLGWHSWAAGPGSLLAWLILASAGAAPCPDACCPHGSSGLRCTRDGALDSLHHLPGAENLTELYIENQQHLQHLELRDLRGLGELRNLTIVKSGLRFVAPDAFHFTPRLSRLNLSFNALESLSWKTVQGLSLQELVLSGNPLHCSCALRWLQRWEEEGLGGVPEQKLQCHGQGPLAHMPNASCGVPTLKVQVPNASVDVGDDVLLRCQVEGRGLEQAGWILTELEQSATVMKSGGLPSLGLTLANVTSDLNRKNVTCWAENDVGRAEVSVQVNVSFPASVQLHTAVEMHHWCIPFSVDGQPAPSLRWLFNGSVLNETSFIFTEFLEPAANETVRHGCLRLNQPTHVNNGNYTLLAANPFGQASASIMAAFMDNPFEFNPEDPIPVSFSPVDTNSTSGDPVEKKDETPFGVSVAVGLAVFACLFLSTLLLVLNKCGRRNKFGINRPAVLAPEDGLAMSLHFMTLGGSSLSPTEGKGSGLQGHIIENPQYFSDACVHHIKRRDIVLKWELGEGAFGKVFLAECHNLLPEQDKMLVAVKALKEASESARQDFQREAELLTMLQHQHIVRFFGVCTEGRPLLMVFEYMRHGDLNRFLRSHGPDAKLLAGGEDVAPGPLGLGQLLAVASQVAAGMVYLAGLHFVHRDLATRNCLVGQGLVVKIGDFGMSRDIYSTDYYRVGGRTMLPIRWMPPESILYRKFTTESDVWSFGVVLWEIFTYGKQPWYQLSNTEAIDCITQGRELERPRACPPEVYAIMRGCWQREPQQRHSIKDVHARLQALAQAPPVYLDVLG
Chain of NT-3 growth factor receptor (Q16288 whole entry): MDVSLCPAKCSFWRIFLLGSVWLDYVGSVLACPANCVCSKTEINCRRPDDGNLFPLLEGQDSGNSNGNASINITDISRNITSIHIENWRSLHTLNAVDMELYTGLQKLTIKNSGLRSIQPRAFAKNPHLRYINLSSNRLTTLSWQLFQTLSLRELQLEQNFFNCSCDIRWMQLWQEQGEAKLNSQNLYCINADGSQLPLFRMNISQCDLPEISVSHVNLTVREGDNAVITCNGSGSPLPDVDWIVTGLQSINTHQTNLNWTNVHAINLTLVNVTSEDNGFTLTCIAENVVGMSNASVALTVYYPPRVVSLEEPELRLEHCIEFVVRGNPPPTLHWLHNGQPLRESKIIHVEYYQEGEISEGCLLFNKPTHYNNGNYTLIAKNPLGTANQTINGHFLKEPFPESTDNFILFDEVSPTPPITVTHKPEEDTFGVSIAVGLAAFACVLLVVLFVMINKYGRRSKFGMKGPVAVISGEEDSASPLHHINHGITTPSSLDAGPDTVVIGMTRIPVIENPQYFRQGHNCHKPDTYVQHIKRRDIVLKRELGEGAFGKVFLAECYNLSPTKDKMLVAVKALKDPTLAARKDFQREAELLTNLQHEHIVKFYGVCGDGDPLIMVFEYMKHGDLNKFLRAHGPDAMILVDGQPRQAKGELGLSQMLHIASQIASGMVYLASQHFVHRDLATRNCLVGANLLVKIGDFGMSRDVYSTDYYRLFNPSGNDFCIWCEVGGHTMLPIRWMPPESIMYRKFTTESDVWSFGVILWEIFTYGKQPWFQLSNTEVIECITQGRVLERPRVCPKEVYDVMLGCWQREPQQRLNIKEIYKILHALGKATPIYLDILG

C[C@@H](Oc1ccn2ncc(C3=NOC(C)(C)N3)c2n1)c1c(Cl)ccc(F)c1Cl [US12435089, Example 9]
< 0.5 nM: all assays above
